test system: human primary T-cells, IL-2 stimulated proliferation (JAK-1 and JAK-3 dependent; reported as JAK3 activity); assay: Human primary T-cell proliferation stimulated by IL-2 (Example 3); assay type: cell-based; details: Homo sapiens, T-cell, tested under conditions described in Example 3 (IL-2 stimulated human primary T-cell proliferation); read-out: ability to inhibit JAK3 activity, IC50 range (Table V)
Outline: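 Peripheral-blood human T-cells pre-activated via TCR/CD28, IL-2-starved overnight, then cultured 72 h at 37 °C with compound in Yssel's medium containing IL-2 (80 U/mL in cell suspension). Proliferation read as viable-cell ATP by CellTiter-Glo luminescence; reduction versus control taken as JAK pathway inhibition.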

Question: Which IC50 does the source give for `COc1cc(Nc2ncc(C)c(Nc3ccc4oc(=O)[nH]c4c3)n2)ccc1C(=O)N(C)C` [Compound I-267, 2-methoxy-N,N-dimethyl-4-(5-methyl-4-(2-oxo-2,3-dihydrobenzo[d]oxazol-5-ylamino)pyrimidin-2-ylamino)benzamide] here?
Answer: Its IC50 is less than 500 nM.

Question: With `COc1cc(Nc2ncc(C)c(Nc3ccc4oc(=O)[nH]c4c3)n2)ccc1C(=O)N1CCCC1` [Compound I-268, 5-(2-(3-methoxy-4-(pyrrolidine-1-carbonyl)phenylamino)-5-methylpyrimidin-4-ylamino)benzo[d]oxazol-2(3H)-one] as the compound, how does the IC50 read?
Answer: The IC50 was less than 500 nM.

Question: `COc1cc(Nc2ncc(C)c(Nc3ccc4oc(=O)[nH]c4c3)n2)ccc1C(=O)N1CCOCC1` [Compound I-269, 5-(2-(3-methoxy-4-(morpholine-4-carbonyl)phenylamino)-5-methylpyrimidin-4-ylamino)benzo[d]oxazol-2(3H)-one] was tested. Which IC50 did it give?
Answer: The IC50 was less than 500 nM.

Question: How did the IC50 turn out when `COc1cc(Nc2ncc(C)c(Nc3ccc4oc(=O)[nH]c4c3)n2)ccc1C(=O)N1CCN(C)CC1` [Compound I-270, 5-(2-(3-methoxy-4-(4-methylpiperazine-1-carbonyl)phenylamino)-5-methylpyrimidin-4-ylamino)benzo[d]oxazol-2(3H)-one] was run?
Answer: The IC50 was less than 500 nM.

Question: How did the IC50 turn out when `COc1ccc(Nc2ncc(C)c(Nc3ccc4oc(=O)[nH]c4c3)n2)cc1C(F)F` [Compound I-271, 5-(2-(3-(difluoromethyl)-4-methoxyphenylamino)-5-methylpyrimidin-4-ylamino)benzo[d]oxazol-2(3H)-one] was run?
Answer: Its IC50 is less than 500 nM.

Question: `COc1ccc(Nc2ncc(C)c(Nc3ccc4oc(=O)[nH]c4c3)n2)cc1` [Compound I-272, 5-(2-(4-methoxyphenylamino)-5-methylpyrimidin-4-ylamino)benzo[d]oxazol-2(3H)-one] was tested. Which IC50 did it give?
Answer: Its IC50 is less than 500 nM.

Question: How did the IC50 turn out when `COc1cc(Nc2ncc(C)c(Nc3ccc4oc(=O)[nH]c4c3)n2)cc(C(F)F)c1` [Compound I-273, 5-(2-(3-(difluoromethyl)-5-methoxyphenylamino)-5-methylpyrimidin-4-ylamino)benzo[d]oxazol-2(3H)-one] was run?
Answer: The IC50 was less than 500 nM.

Question: For `COc1cc(CF)cc(Nc2ncc(C)c(Nc3ccc4oc(=O)[nH]c4c3)n2)c1` [Compound I-274, 5-(2-(3-(fluoromethyl)-5-methoxyphenylamino)-5-methylpyrimidin-4-ylamino)benzo[d]oxazol-2(3H)-one], which IC50 is on record?
Answer: The IC50 was less than 500 nM.

same assay, conditions: tested under conditions described in Example 3 (IL-2 stimulated human primary T-cell proliferation); read-out: ability to inhibit JAK3 activity, IC50 range (Table V)

Question: How did the IC50 turn out when `Cc1cnc(Nc2ccc(N3CCC(F)(F)CC3)c(F)c2)nc1Nc1ccc2oc(=O)[nH]c2c1` [Compound I-275, N2-[4-(4,4-difluoropiperidinyl)-3-fluoro]phenyl-5-methyl-N4-(2-oxo-2,3-dihydro-1,3-benzoxazol-5-yl)-2,4-pyrimidinediamine] was run?
Answer: Its IC50 is less than 500 nM.

Question: Which IC50 does the source give for `Cc1cnc(Nc2ccc(N3CCC(F)(F)CC3)c(C(F)(F)F)c2)nc1Nc1ccc2oc(=O)[nH]c2c1` [Compound I-276, N2-[4-(4,4-difluoropiperidinyl)-3-trifluoromethyl]phenyl-5-methyl-N4-(2-oxo-2,3-dihydro-1,3-benzoxazol-5-yl)-2,4-pyrimidinediamine] here?
Answer: The IC50 was less than 500 nM.

Question: With `Cc1cnc(Nc2ccc(N3CCC(F)(F)CC3)c(Cl)c2)nc1Nc1ccc2oc(=O)[nH]c2c1` [Compound I-277, N2-[3-chloro-4-(4,4-difluoropiperidinyl)]phenyl-5-methyl-N4-(2-oxo-2,3-dihydro-1,3-benzoxazol-5-yl)-2,4-pyrimidinediamine] as the compound, how does the IC50 read?
Answer: The IC50 was less than 500 nM.

Question: `CCN1CCN(c2ccc(Nc3ncc(C)c(Nc4ccc5oc(=O)[nH]c5c4)n3)cc2Cl)CC1` [Compound I-278, N2-[3-chloro-4-(4-ethylpiperazino)]phenyl-5-methyl-N4-(2-oxo-2,3-dihydro-1,3-benzoxazol-5-yl)-2,4-pyrimidinediamine] was tested. Which IC50 did it give?
Answer: The IC50 was less than 500 nM.

Question: How did the IC50 turn out when `Cc1cnc(Nc2ccc(N3CCC(F)(F)CC3)cc2)nc1Nc1ccc2oc(=O)[nH]c2c1` [Compound I-279, N2-[4-(4,4-difluoropiperidinyl)]phenyl-5-methyl-N4-(2-oxo-2,3-dihydro-1,3-benzoxazol-5-yl)-2,4-pyrimidinediamine] was run?
Answer: Its IC50 is less than 500 nM.

Reference: patent publication US10005767B2, “Compositions and methods for inhibition of the JAK pathway” (Rigel Pharmaceuticals, Inc., priority 2009, dated 2018)
